Measured values from the supplement of paper PMC10307832.

Compound: NC(=O)c1ccc(N(C(N)=O)c2c(F)cccc2F)nc1-c1ccc(F)cc1F [VX-702] + Cc1cc(Nc2cc(N3CCN(C)CC3)nc(Sc3ccc(NC(=O)C4CC4)cc3)n2)n[nH]1 [Tozasertib] (partner 0.1 µM)
Test: relative viability (nuclei count vs DMSO), 5 days (fraction); higher = more cells survive
Conditions: first compound 0.6325 µM
Method in brief: (§1)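 Cells from lung cancer lines were seeded into 1536-well plates and, one day later, dosed by pin tool. Treatments were either a single drug or a fixed dose of an anchor drug with five library-drug doses (not always all listed) in √10 steps. After 5 days, nuclei were stained in a one-step fixation (final 0.05% Triton X-100, 1% formaldehyde, 1 ug/ml Hoechst) and counted on 4× images, and relative viability is the treated-to-vehicle nuclei ratio, as the median of duplicate plates.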

Cell Line	relative viability
NCI-H1734	0.236
BEN	0.481
NCI-H460	0.614
H3255	0.655
SK-LU-1	0.311
NCI-H1793	0.248
NCI-H23	0.37
SW 1573	0.173
NCI-H838	0.303
NCI-H2342	0.484
EPLC-272H	0.418
NCI-H3122	0.379
NCI-H1915	0.42
NCI-H727	0.572
NCI-H1975	0.713
LK-2	0.157
NCI-H2087	0.284
LCLC-97TM1	0.301
NCI-H661	0.352
NCI-H2405	0.717
NCI-H1993	0.623
PC-3 [JPC-3]	0.922
NCI-H2009	0.728
NCI-H2347	0.505
NCI-H520	0.434
LXF-289	0.214
NCI-H358	0.0872
LC-2-ad	0.465
201T	0.937

Same assay, conditions: first compound 2 µM

Cell Line	relative viability
NCI-H1355	0.631
HCC-15	0.53
LU99A	0.263
EKVX	0.423
COR-L23	0.244
NCI-H1437	0.45
RERF-LC-KJ	0.463
NCI-H1734	0.222
BEN	0.55
NCI-H460	0.159
H3255	0.8
SK-LU-1	0.476
NCI-H1793	0.322
NCI-H23	0.486
SW 1573	0.243
NCI-H838	0.291
NCI-H2342	0.524
EPLC-272H	0.289

Cell Line	relative viability
NCI-H3122	0.49
NCI-H1915	0.46
NCI-H727	0.665
NCI-H1975	0.934
LK-2	0.168
NCI-H2087	0.281
LCLC-97TM1	0.252
NCI-H661	0.35
NCI-H2405	0.726
NCI-H1993	0.806
PC-3 [JPC-3]	0.957
NCI-H2009	0.988
NCI-H2347	0.521
NCI-H520	0.55
LXF-289	0.175
NCI-H358	0.115
LC-2-ad	0.497
201T	0.914

Compound: CC(C)(C)c1nc(-c2cccc(NS(=O)(=O)c3c(F)cccc3F)c2F)c(-c2ccnc(N)n2)s1 [Dabrafenib] + Cc1nc(Nc2ncc(C(=O)Nc3c(C)cccc3Cl)s2)cc(N2CCN(CCO)CC2)n1 [Dasatinib] (partner 0.075 µM)
Test: as above
Conditions: first compound 0.003 µM
Method in brief: as §1

Cell Line	relative viability
HCC-15	0.597
LU99A	0.662
COR-L23	0.448
NCI-H1437	0.281
RERF-LC-KJ	0.73
NCI-H460	0.43
H3255	0.285
SW 1573	0.263
NCI-H838	0.254
NCI-H2342	0.288
EPLC-272H	0.281
NCI-H3122	0.773
NCI-H1915	0.316
NCI-H1975	0.372
